# System: MV-4-11 cells
# Assay: Gene expression microarray analysis (Affymetrix PrimeView) and GSEA
# Format: cell-based, human
# Set-up: RFU PODN (11730768_x_at) / Fold change /veh PODN (11730768_x_at) / RFU LINC00158 (11744669_a_at) / Fold change /veh LINC00158 (11744669_a_at) / RFU DUSP10 (11751237_a_at) / Fold change /veh DUSP10 (11751237_a_at) / RFU ID3 (11757404_x_at) / Fold change /veh ID3 (11757404_x_at) / RFU PLEKHG5 (11737974_s_at) / Fold change /veh PLEKHG5 (11737974_s_at) / RFU LRRC4B (11730491_at) / Fold change /veh LRRC4B (11730491_at) / RFU GIMAP4 (11747438_a_at) / Fold change /veh GIMAP4 (11747438_a_at) / RFU KRT8 (11758183_x_at) / Fold change /veh KRT8 (11758183_x_at) / RFU CNN1 (11734310_a_at) / Fold change /veh CNN1 (11734310_a_at) / RFU VPS37D (11726825_at) / Fold change /veh VPS37D (11726825_at) / RFU C10orf10 (11716522_x_at) / Fold change /veh C10orf10 (11716522_x_at) / RFU KIR2DL2 /// KIR2DL4 /// KIR2DL5A /// KIR2DL5B /// KIR2DS1 /// KIR2DS2 /// KIR2DS3 /// KIR2DS4 /// KIR3DL3 /// KIR3DL3 /// KIR3DS1 (11738374_at) / Fold change /veh KIR2DL2 /// KIR2DL4 /// KIR2DL5A /// KIR2DL5B /// KIR2DS1 /// KIR2DS2 /// KIR2DS3 /// KIR2DS4 /// KIR3DL3 /// KIR3DL3 /// KIR3DS1 (11738374_at) / RFU C1QL1 (11718748_at) / Fold change /veh C1QL1 (11718748_at) / RFU TMPRSS4 (11747572_a_at) / Fold change /veh TMPRSS4 (11747572_a_at) / RFU HAMP (11756126_x_at) / Fold change /veh HAMP (11756126_x_at) / RFU RNFT2 (11725882_a_at) / Fold change /veh RNFT2 (11725882_a_at) / RFU NR4A2 (11747474_a_at) / Fold change /veh NR4A2 (11747474_a_at) / RFU ABCC12 (11746883_a_at) / Fold change /veh ABCC12 (11746883_a_at) / RFU TMEM136 (11760407_x_at) / Fold change /veh TMEM136 (11760407_x_at) / RFU CLDN22 /// WWC2 (11732394_at) / Fold change /veh CLDN22 /// WWC2 (11732394_at) / RFU HLA-DPB1 (11760878_x_at) / Fold change /veh HLA-DPB1 (11760878_x_at) / RFU SPINT1 (11716480_a_at) / Fold change /veh SPINT1 (11716480_a_at) / RFU GAP43 (11754022_s_at) / Fold change /veh GAP43 (11754022_s_at) / RFU A4GNT (11735810_at) / Fold change /veh A4GNT (11735810_at) / RFU PRB3 (11715151_x_at) / Fold change /veh PRB3 (11715151_x_at) / RFU TUBB4B (11761932_at) / Fold change /veh TUBB4B (11761932_at) / RFU CAPN14 (11732068_a_at) / Fold change /veh CAPN14 (11732068_a_at) / RFU TMCC2 (11721928_a_at) / Fold change /veh TMCC2 (11721928_a_at) / RFU IRGQ (11745062_a_at) / Fold change /veh IRGQ (11745062_a_at) / RFU FAM174B (11720279_a_at) / Fold change /veh FAM174B (11720279_a_at) / RFU TMPRSS4 (11748680_a_at) / Fold change /veh TMPRSS4 (11748680_a_at) / RFU FAM212B (11763350_a_at) / Fold change /veh FAM212B (11763350_a_at) / RFU PLEKHG5 (11743358_a_at) / Fold change /veh PLEKHG5 (11743358_a_at) / RFU ZSCAN30 (11745921_a_at) / Fold change /veh ZSCAN30 (11745921_a_at) / RFU CMKLR1 (11741424_a_at) / Fold change /veh CMKLR1 (11741424_a_at) / RFU LOC101060620 /// MAPK8IP1 (11723275_at) / Fold change /veh LOC101060620 /// MAPK8IP1 (11723275_at) / RFU SPTSSB (11747773_x_at) / Fold change /veh SPTSSB (11747773_x_at) / RFU PRSS12 (11739890_at) / Fold change /veh PRSS12 (11739890_at) / RFU BIN1 (11741810_x_at) / Fold change /veh BIN1 (11741810_x_at) / RFU WNT11 (11732464_a_at) / Fold change /veh WNT11 (11732464_a_at) / RFU C10orf10 (11716521_a_at) / Fold change /veh C10orf10 (11716521_a_at) / RFU C5orf56 (11738089_at) / Fold change /veh C5orf56 (11738089_at) / RFU CYB561 (11721691_x_at) / Fold change /veh CYB561 (11721691_x_at) / RFU ANKRD19P (11752326_a_at) / Fold change /veh ANKRD19P (11752326_a_at) / RFU OR2T12 /// OR2T33 /// OR2T8 (11738714_s_at) / Fold change /veh OR2T12 /// OR2T33 /// OR2T8 (11738714_s_at) / RFU VCAN (11748164_a_at) / Fold change /veh VCAN (11748164_a_at) / RFU JSRP1 (11732532_at) / Fold change /veh JSRP1 (11732532_at) / RFU KRTAP10-11 (11738290_x_at) / Fold change /veh KRTAP10-11 (11738290_x_at) / RFU MYO3A (11730013_a_at) / Fold change /veh MYO3A (11730013_a_at) / RFU EBF3 (11725865_a_at) / Fold change /veh EBF3 (11725865_a_at) / RFU CAMK2N1 (11719241_x_at) / Fold change /veh CAMK2N1 (11719241_x_at) / RFU C5orf56 (11738088_a_at) / Fold change /veh C5orf56 (11738088_a_at) / RFU OLFML3 (11715873_a_at) / Fold change /veh OLFML3 (11715873_a_at) / RFU LOC100653217 /// NTM (11731650_a_at) / Fold change /veh LOC100653217 /// NTM (11731650_a_at) / RFU MAPK11 (11762145_a_at) / Fold change /veh MAPK11 (11762145_a_at) / RFU FIZ1 (11724087_x_at) / Fold change /veh FIZ1 (11724087_x_at) / RFU OASL (11726364_x_at) / Fold change /veh OASL (11726364_x_at) / RFU SOX15 (11748057_x_at) / Fold change /veh SOX15 (11748057_x_at) / RFU CD79A (11719716_a_at) / Fold change /veh CD79A (11719716_a_at) / RFU HIST1H1D (11736915_at) / Fold change /veh HIST1H1D (11736915_at) / RFU CASKIN2 (11723855_a_at) / Fold change /veh CASKIN2 (11723855_a_at) / RFU LOC730098 (11760151_x_at) / Fold change /veh LOC730098 (11760151_x_at) / RFU OR4N2 (11742367_at) / Fold change /veh OR4N2 (11742367_at) / RFU PRRT2 (11749266_a_at) / Fold change /veh PRRT2 (11749266_a_at) / RFU SNX32 (11753110_a_at) / Fold change /veh SNX32 (11753110_a_at) / RFU CDHR5 (11726645_a_at) / Fold change /veh CDHR5 (11726645_a_at) / RFU RCAN1 (11760418_a_at) / Fold change /veh RCAN1 (11760418_a_at) / RFU FAM167A (11723789_a_at) / Fold change /veh FAM167A (11723789_a_at) / RFU FAM26E (11764081_at) / Fold change /veh FAM26E (11764081_at) / RFU ISYNA1 (11749810_s_at) / Fold change /veh ISYNA1 (11749810_s_at) / RFU ACY1 (11761880_at) / Fold change /veh ACY1 (11761880_at) / RFU 11764098_at / Fold change /veh 11764098_at / RFU SAMD14 (11745864_x_at) / Fold change /veh SAMD14 (11745864_x_at) / RFU NPB (11741838_a_at) / Fold change /veh NPB (11741838_a_at) / RFU TMPRSS6 (11731388_a_at) / Fold change /veh TMPRSS6 (11731388_a_at) / RFU KRTAP10-2 (11738614_at) / Fold change /veh KRTAP10-2 (11738614_at) / RFU ARHGAP8 /// PRR5-ARHGAP8 (11727945_x_at) / Fold change /veh ARHGAP8 /// PRR5-ARHGAP8 (11727945_x_at) / RFU KRTAP5-7 /// NADSYN1 (11734609_at) / Fold change /veh KRTAP5-7 /// NADSYN1 (11734609_at) / RFU RASL12 (11751679_a_at) / Fold change /veh RASL12 (11751679_a_at) / RFU CDKN2B (11736163_a_at) / Fold change /veh CDKN2B (11736163_a_at) / RFU PRF1 (11729649_at) / Fold change /veh PRF1 (11729649_at) / RFU, ZNF638 /// ZNF638-IT1 / Fold change vs veh, ZNF638 /// ZNF638-IT1 / RFU, PANK3 / Fold change vs veh, PANK3 / RFU, SH3YL1 / Fold change vs veh, SH3YL1 / RFU, ZEB2 / Fold change vs veh, ZEB2 / RFU, NRIP1 / Fold change vs veh, NRIP1 / RFU, PTTG1IP / Fold change vs veh, PTTG1IP / RFU, CAPN2 / Fold change vs veh, CAPN2 / RFU, MED14 / Fold change vs veh, MED14 / RFU, SNORA58 / Fold change vs veh, SNORA58 / RFU, C1orf63 / Fold change vs veh, C1orf63 / RFU, LRRFIP1 / Fold change vs veh, LRRFIP1 / RFU, NDUFAF7 / Fold change vs veh, NDUFAF7 / RFU, SLC12A2 / Fold change vs veh, SLC12A2 / RFU, IBTK / Fold change vs veh, IBTK / RFU, ESF1 / Fold change vs veh, ESF1 / Fold change vs veh, TMEM50B / RFU, TAOK1 / Fold change vs veh, TAOK1 / RFU, ACBD3 / Fold change vs veh, ACBD3 / RFU, TMA16 / Fold change vs veh, TMA16 / RFU, RWDD3 / Fold change vs veh, RWDD3 / RFU, BCAT1 / Fold change vs veh, BCAT1 / RFU, EDEM3 / Fold change vs veh, EDEM3 / RFU, TMEM33 / Fold change vs veh, TMEM33 / RFU, WDR75 / Fold change vs veh, WDR75 / RFU, AHCTF1 / Fold change vs veh, AHCTF1 / RFU, TFRC / Fold change vs veh, TFRC / RFU, ZDHHC17 / Fold change vs veh, ZDHHC17 / RFU, NOM1 / Fold change vs veh, NOM1 / RFU, ARL8B / Fold change vs veh, ARL8B / RFU, ZBTB11 / Fold change vs veh, ZBTB11 / RFU, TAMM41 / Fold change vs veh, TAMM41 / RFU, KIAA1704 /// LOC100996395 / Fold change vs veh, KIAA1704 /// LOC100996395 / RFU, ING1 / Fold change vs veh, ING1 / RFU, TRMT61B / Fold change vs veh, TRMT61B / RFU, FUBP3 / Fold change vs veh, FUBP3 / RFU, TP53 / Fold change vs veh, TP53 / RFU, TNKS2 / Fold change vs veh, TNKS2 / RFU, ZFP14 / Fold change vs veh, ZFP14 / RFU, ACTR2 / Fold change vs veh, ACTR2 / RFU, PPP3R1 / Fold change vs veh, PPP3R1 / RFU, PIK3R1 / Fold change vs veh, PIK3R1 / RFU, HNRNPA1 / Fold change vs veh, HNRNPA1 / RFU, RNF170 / Fold change vs veh, RNF170 / RFU, ZNF28 / Fold change vs veh, ZNF28 / RFU, RNGTT / Fold change vs veh, RNGTT / RFU, OGT / Fold change vs veh, OGT / RFU, BRD1 / Fold change vs veh, BRD1 / RFU, MARS / Fold change vs veh, MARS / RFU, ZNF655 / Fold change vs veh, ZNF655 / RFU, FAHD1 / Fold change vs veh, FAHD1 / RFU, BDP1 / Fold change vs veh, BDP1 / RFU, LRRCC1 / Fold change vs veh, LRRCC1 / RFU, ARID1A / Fold change vs veh, ARID1A / RFU, ZNF146 / Fold change vs veh, ZNF146 / RFU, ZNF330 / Fold change vs veh, ZNF330 / RFU, GPN3 / Fold change vs veh, GPN3 / RFU, C9orf123 / Fold change vs veh, C9orf123 / RFU, N4BP2L2 / Fold change vs veh, N4BP2L2 / RFU, ARFIP1 / Fold change vs veh, ARFIP1 / RFU, FAM179B / Fold change vs veh, FAM179B / RFU, BCL10 / Fold change vs veh, BCL10 / RFU, UHRF1BP1L / Fold change vs veh, UHRF1BP1L / RFU, BET1 / Fold change vs veh, BET1 / RFU, CNOT2 / Fold change vs veh, CNOT2 / RFU, ZNF268 / Fold change vs veh, ZNF268 / Fold change vs veh, ZNF507 / RFU, DGCR2 / Fold change vs veh, DGCR2 / RFU, WDSUB1 / Fold change vs veh, WDSUB1 / Fold change vs veh, HSP90B1 /// MIR3652 / RFU, ADSS / Fold change vs veh, ADSS / RFU, GK / Fold change vs veh, GK / RFU, ZNF148 / Fold change vs veh, ZNF148 / RFU, TAF9 / Fold change vs veh, TAF9 / RFU, SLC1A5 / Fold change vs veh, SLC1A5 / RFU, SLMO2 / Fold change vs veh, SLMO2 / RFU, ABCC4 / Fold change vs veh, ABCC4 / RFU, LOC101060439 /// RAP1B / Fold change vs veh, LOC101060439 /// RAP1B / RFU, RFX7 / Fold change vs veh, RFX7 / RFU, GTPBP10 / Fold change vs veh, GTPBP10 / RFU, CNEP1R1 / Fold change vs veh, CNEP1R1 / RFU, BIVM-ERCC5 /// ERCC5 / Fold change vs veh, BIVM-ERCC5 /// ERCC5 / RFU, ILF3 / Fold change vs veh, ILF3 / RFU 11762660_at / Fold change /veh 11762660_at / RFU VCAN (11757783_s_at) / Fold change /veh VCAN (11757783_s_at) / RFU DDX43 (11728927_at) / Fold change /veh DDX43 (11728927_at) / RFU KRT8 (11758188_x_at) / Fold change /veh KRT8 (11758188_x_at) / RFU NKD1 (11759106_at) / Fold change /veh NKD1 (11759106_at) / RFU SRD5A1 (11742802_a_at) / Fold change /veh SRD5A1 (11742802_a_at) / RFU TPSAB1 /// TPSB2 (11721975_s_at) / Fold change /veh TPSAB1 /// TPSB2 (11721975_s_at) / RFU GSTM3 (11746129_a_at) / Fold change /veh GSTM3 (11746129_a_at) / RFU IL23R (11737362_x_at) / Fold change /veh IL23R (11737362_x_at) / RFU TMEM51 (11727254_a_at) / Fold change /veh TMEM51 (11727254_a_at) / RFU PIWIL2 (11732686_x_at) / Fold change /veh PIWIL2 (11732686_x_at) / RFU ORM1 (11744905_x_at) / Fold change /veh ORM1 (11744905_x_at) / RFU CCDC152 (11743942_at) / Fold change /veh CCDC152 (11743942_at) / RFU ECM1 (11717891_a_at) / Fold change /veh ECM1 (11717891_a_at) / RFU IL23R (11748794_a_at) / Fold change /veh IL23R (11748794_a_at) / RFU TNFAIP8L3 (11732012_x_at) / Fold change /veh TNFAIP8L3 (11732012_x_at) / RFU MBOAT4 (11741988_at) / Fold change /veh MBOAT4 (11741988_at) / RFU 11764193_at / Fold change /veh 11764193_at / RFU TMEM53 (11763286_at) / Fold change /veh TMEM53 (11763286_at) / RFU MAGEB2 (11727129_at) / Fold change /veh MAGEB2 (11727129_at) / RFU TMEM200A (11744735_a_at) / Fold change /veh TMEM200A (11744735_a_at) / RFU CCDC152 (11751479_a_at) / Fold change /veh CCDC152 (11751479_a_at) / RFU FAM211A (11726209_a_at) / Fold change /veh FAM211A (11726209_a_at) / RFU RGS16 (11746705_a_at) / Fold change /veh RGS16 (11746705_a_at) / RFU VCAN (11755009_s_at) / Fold change /veh VCAN (11755009_s_at) / RFU RHOB (11743442_s_at) / Fold change /veh RHOB (11743442_s_at) / RFU RGS16 (11720943_a_at) / Fold change /veh RGS16 (11720943_a_at) / RFU RGS16 (11720944_at) / Fold change /veh RGS16 (11720944_at) / RFU, VPS4B / Fold change vs veh, VPS4B / RFU, CREB1 / Fold change vs veh, CREB1 / RFU, DNAJC13 / Fold change vs veh, DNAJC13 / RFU, GNAQ / Fold change vs veh, GNAQ / RFU, CDK5R1 / Fold change vs veh, CDK5R1 / RFU, ZRANB3 / Fold change vs veh, ZRANB3 / RFU, CUL4A / Fold change vs veh, CUL4A / RFU, CCNY / Fold change vs veh, CCNY / RFU, UFL1 / Fold change vs veh, UFL1 / RFU, COG3 / Fold change vs veh, COG3 / RFU, DIAPH2 / Fold change vs veh, DIAPH2 / RFU, SKA2 / Fold change vs veh, SKA2 / RFU, AFF3 / Fold change vs veh, AFF3 / RFU, LMF1 / Fold change vs veh, LMF1 / RFU, IPO11 / Fold change vs veh, IPO11 / RFU, DFFB / Fold change vs veh, DFFB / RFU, FOXP1 / Fold change vs veh, FOXP1 / RFU, CARD8 / Fold change vs veh, CARD8 / RFU, STRN3 / Fold change vs veh, STRN3 / RFU, ADK / Fold change vs veh, ADK / RFU, RASSF2 / Fold change vs veh, RASSF2 / RFU, WIPF1 / Fold change vs veh, WIPF1 / RFU, LARP1B / Fold change vs veh, LARP1B / RFU, RASA1 / Fold change vs veh, RASA1 / RFU, RB1 / Fold change vs veh, RB1 / RFU, PPFIA1 / Fold change vs veh, PPFIA1 / RFU, MAT2A / Fold change vs veh, MAT2A / RFU, CCT5 / Fold change vs veh, CCT5 / RFU, WDR92 / Fold change vs veh, WDR92 / RFU, CUX1 / Fold change vs veh, CUX1 / RFU, TTC7A / Fold change vs veh, TTC7A / RFU, TMEM135 / Fold change vs veh, TMEM135 / RFU, DEPTOR / Fold change vs veh, DEPTOR / RFU, CPM / Fold change vs veh, CPM / RFU, DNAJB6 / Fold change vs veh, DNAJB6 / RFU, CACNA2D3 / Fold change vs veh, CACNA2D3 / RFU, DTX4 / Fold change vs veh, DTX4 / RFU, TFCP2 / Fold change vs veh, TFCP2 / RFU, GMCL1 /// GMCL1P1 / Fold change vs veh, GMCL1 /// GMCL1P1 / RFU, AEBP2 / Fold change vs veh, AEBP2 / RFU, SNHG1 /// SNORD22 /// SNORD25 /// SNORD26 /// SNORD27 /// SNORD28 /// SNORD29 /// SNORD31 / Fold change vs veh, SNHG1 /// SNORD22 /// SNORD25 /// SNORD26 /// SNORD27 /// SNORD28 /// SNORD29 /// SNORD31 / Fold change (Aza/veh), C12orf56 (ProbeSet 11735607_a_at) / Fold change (ACY-1035/veh), C12orf56 (ProbeSet 11735607_a_at) / Fold change (Aza/veh), FGFR1OP (ProbeSet 11751329_s_at) / Fold change (ACY-1035/veh), FGFR1OP (ProbeSet 11751329_s_at) / Fold change (Aza/veh), VPS36 (ProbeSet 11739960_a_at) / Fold change (ACY-1035/veh), VPS36 (ProbeSet 11739960_a_at) / RFU SYPL1 (11715823_x_at) / Fold change /veh SYPL1 (11715823_x_at) / RFU IGFBP7 (11715501_s_at) / Fold change /veh IGFBP7 (11715501_s_at) / RFU REEP3 (11722064_at) / Fold change /veh REEP3 (11722064_at) / RFU IGLL1 (11728026_x_at) / Fold change /veh IGLL1 (11728026_x_at): dose or concentration left out as unconfirmed
# Conditions: MV-4-11 cells, 48 hours
smiles,measurement,value
Nc1ncn([C@@H]2O[C@H](CO)[C@@H](O)[C@H]2O)c(=O)n1 [azacitidine],RFU PRB3 (11715151_x_at),8.00 RFU
